Assays:
[1] = test system: Capan-1 (K-Ras G12V); experiment: CellTiter-Glo cell viability assay, 5-day treatment; format: cell-based; details: Homo sapiens, CAPAN-1, 120 h, 5-day treatment; read-out: Capan-1 Cell Viability assay data (K-Ras G12V, IC50)
Procedure, shortened: (§1)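 Seeded cells received test compound by direct dispensing. On day 5 the plates sat at room temperature approximately 30 minutes, then luminescence was measured. Data were normalized to DMSO and curve-fitted with four parameters.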

[2] = test system: NCI-H358 (K-Ras G12C); experiment: as above; format: cell-based; details: Homo sapiens, NCI-H358, 120 h, 5-day treatment; read-out: H358 Cell Viability assay data (K-Ras G12C, IC50)
Procedure, shortened: as §1

[3] = target: KRAS G12C (Homo sapiens, UniProt P01116+P62937, G12C); experiment: Disruption of BRAF RBD interaction with Ras (FRET / MOA assay, with Cyclophilin A); format: biochemical; details: read-out: KRAS G12C FRET data, IC50
Procedure, shortened: (§2)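 Measured via TR-FRET after 3 h at 25 °C with compound (30 μM top, threefold serial steps, ten concentrations) plus K-Ras, Cyclophilin A and BRAF RBD, followed by 1.5 h with anti-His europium (10 nM) and anti-GST allophycocyanin (50 nM). Signal loss versus DMSO gave IC50.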

[4] = target: KRAS G12D (Homo sapiens, UniProt P01116+P62937, G12D); experiment: as above; format: biochemical; details: read-out: KRAS G12D FRET data, IC50
Procedure, shortened: as §2

[5] = target: KRAS G12S (Homo sapiens, UniProt P01116+P62937, G12S); experiment: as above; format: biochemical; details: read-out: KRAS G12S FRET data, IC50
Procedure, shortened: as §2

[6] = target: KRAS G12V (Homo sapiens, UniProt P01116+P62937, G12V); experiment: as above; format: biochemical; details: KRAS G12V; read-out: KRAS G12V FRET data IC50
Procedure, shortened: as §2

[7] = target: KRAS G13C (Homo sapiens, UniProt P01116+P62937, G13C); experiment: as above; format: biochemical; details: read-out: KRAS G13C FRET data, IC50
Procedure, shortened: as §2

[8] = target: KRAS G13D (Homo sapiens, UniProt P01116+P62937, G13D); experiment: as above; format: biochemical; details: KRAS G13D; read-out: KRAS G13D FRET data IC50
Procedure, shortened: as §2

[9] = target: KRAS WT (Homo sapiens, UniProt P01116+P62937); experiment: as above; format: biochemical; details: KRAS WT; read-out: KRAS WT FRET data IC50
Procedure, shortened: as §2

[10] = target: NRAS G12C (Homo sapiens, UniProt P01111+P62937, G12C); experiment: as above; format: biochemical; details: NRAS G12C; read-out: NRAS G12C FRET data IC50
[11] = target: KRAS Q61H (Homo sapiens, UniProt P01116+P62937, Q61H); experiment: as above; format: biochemical; details: KRAS Q61H; read-out: KRAS Q61H FRET data IC50
Procedure, shortened: (§3)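 IC50 reflects compound-driven Ras:Cyclophilin A ternary complex displacing BRAF RBD, read as lowered TR-FRET ratio relative to DMSO after Eu anti-His (10 nM) and APC anti-GST (50 nM) detection for 1.5 h. Prior incubation 3 h, 25° C, with 12.5 nM GMPPNP-loaded Ras, 50 nM BRAF RBD, 25 μM Cyclophilin A; top compound 30 μM.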

[12] = target: NRAS Q61K (Homo sapiens, UniProt P01111+P62937, Q61K); experiment: as above; format: biochemical; details: NRAS Q61K; read-out: NRAS Q61K FRET data IC50
Procedure, shortened: as §3

[13] = target: NRAS Q61R (Homo sapiens, UniProt P01111+P62937, Q61R); experiment: as above; format: biochemical; details: NRAS Q61R; read-out: NRAS Q61R FRET data IC50
Procedure, shortened: as §3

[14] = target: NRAS WT (Homo sapiens, UniProt P01111+P62937); experiment: as above; format: biochemical; details: NRAS WT; read-out: NRAS WT FRET data IC50
Procedure, shortened: as §3

Sequence of NRAS G12C (P01111 whole entry G12C): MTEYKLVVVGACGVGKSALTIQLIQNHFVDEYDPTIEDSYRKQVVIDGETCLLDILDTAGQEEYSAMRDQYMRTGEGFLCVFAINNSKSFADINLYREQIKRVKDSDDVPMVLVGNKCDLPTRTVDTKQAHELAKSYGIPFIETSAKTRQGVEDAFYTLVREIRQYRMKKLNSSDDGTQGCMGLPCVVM
Sequence of NRAS G12C (P62937 whole entry): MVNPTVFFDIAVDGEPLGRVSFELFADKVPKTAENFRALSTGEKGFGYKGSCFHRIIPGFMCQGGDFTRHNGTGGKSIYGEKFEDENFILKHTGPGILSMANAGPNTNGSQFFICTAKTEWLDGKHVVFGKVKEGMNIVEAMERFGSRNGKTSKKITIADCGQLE
Sequence of NRAS Q61R (P01111 whole entry Q61R): as the sequence (P01111 whole entry G12C) above, with C12G, Q61R counted along it
Sequence of NRAS Q61R (P62937 whole entry): as the sequence (P62937 whole entry) above
Sequence of KRAS G12S (P01116 1-169 isoform P01116-2 G12S limits assumed): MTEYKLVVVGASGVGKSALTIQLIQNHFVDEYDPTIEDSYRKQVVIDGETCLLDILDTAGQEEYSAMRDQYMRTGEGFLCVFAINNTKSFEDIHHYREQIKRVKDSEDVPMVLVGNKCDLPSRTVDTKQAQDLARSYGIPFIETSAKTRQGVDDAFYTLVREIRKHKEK
Sequence of KRAS G12S (P62937 whole entry): as the sequence (P62937 whole entry) above
Sequence of KRAS G12C (P01116 1-169 isoform P01116-2 G12C): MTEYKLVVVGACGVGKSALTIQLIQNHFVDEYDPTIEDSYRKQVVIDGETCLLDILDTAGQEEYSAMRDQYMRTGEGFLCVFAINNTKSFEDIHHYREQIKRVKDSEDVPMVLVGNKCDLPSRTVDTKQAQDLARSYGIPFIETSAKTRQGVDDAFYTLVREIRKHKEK
Sequence of KRAS G12C (P62937 whole entry): as the sequence (P62937 whole entry) above
Sequence of KRAS G13D (P01116 1-169 isoform P01116-2 G13D limits assumed): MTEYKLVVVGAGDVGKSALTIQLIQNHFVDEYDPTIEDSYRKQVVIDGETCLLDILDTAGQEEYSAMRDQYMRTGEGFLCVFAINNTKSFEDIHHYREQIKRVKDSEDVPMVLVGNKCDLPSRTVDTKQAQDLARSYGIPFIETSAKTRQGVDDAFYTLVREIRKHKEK
Sequence of KRAS G13D (P62937 whole entry): as the sequence (P62937 whole entry) above
Sequence of KRAS G12D (P01116 1-169 isoform P01116-2 G12D limits assumed): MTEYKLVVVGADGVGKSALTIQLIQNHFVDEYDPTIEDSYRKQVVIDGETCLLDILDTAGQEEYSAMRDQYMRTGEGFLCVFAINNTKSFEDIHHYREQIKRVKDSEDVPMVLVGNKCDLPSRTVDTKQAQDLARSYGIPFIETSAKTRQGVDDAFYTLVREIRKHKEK
Sequence of KRAS G12D (P62937 whole entry): as the sequence (P62937 whole entry) above
Sequence of KRAS G13C (P01116 1-169 isoform P01116-2 G13C): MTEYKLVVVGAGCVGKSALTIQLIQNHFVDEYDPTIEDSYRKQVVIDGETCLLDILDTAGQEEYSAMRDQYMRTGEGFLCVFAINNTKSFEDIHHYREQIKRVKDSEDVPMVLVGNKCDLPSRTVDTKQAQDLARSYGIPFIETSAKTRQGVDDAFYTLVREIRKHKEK
Sequence of KRAS G13C (P62937 whole entry): as the sequence (P62937 whole entry) above
Sequence of KRAS G12V (P01116 1-169 isoform P01116-2 G12V limits assumed): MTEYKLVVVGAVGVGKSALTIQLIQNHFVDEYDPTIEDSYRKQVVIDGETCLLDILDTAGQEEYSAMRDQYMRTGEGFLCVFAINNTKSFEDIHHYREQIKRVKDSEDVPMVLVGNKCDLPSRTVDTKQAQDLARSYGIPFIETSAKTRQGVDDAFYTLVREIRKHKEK
Sequence of KRAS G12V (P62937 whole entry): as the sequence (P62937 whole entry) above
Sequence of KRAS Q61H (P01116 1-169 isoform P01116-2 Q61H limits assumed): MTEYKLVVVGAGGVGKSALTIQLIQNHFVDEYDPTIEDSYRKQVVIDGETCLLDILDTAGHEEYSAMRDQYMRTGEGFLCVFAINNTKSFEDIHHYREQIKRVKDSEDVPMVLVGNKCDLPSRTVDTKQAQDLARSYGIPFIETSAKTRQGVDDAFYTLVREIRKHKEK
Sequence of KRAS Q61H (P62937 whole entry): as the sequence (P62937 whole entry) above
Sequence of NRAS Q61K (P01111 whole entry Q61K): as the sequence (P01111 whole entry G12C) above, with C12G, Q61K counted along it
Sequence of NRAS Q61K (P62937 whole entry): as the sequence (P62937 whole entry) above
Sequence of NRAS WT (P01111 whole entry): as the sequence (P01111 whole entry G12C) above, with C12G counted along it
Sequence of NRAS WT (P62937 whole entry): as the sequence (P62937 whole entry) above
Sequence of KRAS WT (P01116 1-169 isoform P01116-2 limits assumed): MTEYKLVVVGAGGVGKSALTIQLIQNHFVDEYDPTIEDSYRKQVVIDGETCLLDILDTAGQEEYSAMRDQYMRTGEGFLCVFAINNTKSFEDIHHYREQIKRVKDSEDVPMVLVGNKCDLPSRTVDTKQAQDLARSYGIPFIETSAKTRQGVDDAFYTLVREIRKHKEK
Sequence of KRAS WT (P62937 whole entry): as the sequence (P62937 whole entry) above

SMILES | IC50 [2] [nM] | IC50 [3] [nM] | IC50 [4] [nM] | IC50 [5] [nM] | IC50 [6] [nM] | IC50 [7] [nM] | IC50 [8] [nM] | IC50 [9] [nM] | IC50 [10] [nM] | IC50 [11] [nM] | IC50 [12] [nM] | IC50 [13] [nM] | IC50 [14] [nM] | IC50 [1] [nM]
CCn1c(-c2cccnc2[C@H](C)OC)c2c3cc(ccc31)-c1csc(n1)C[C@H](NC(=O)[C@H](C(C)C)N(C)C(=O)N1CC[C@@]3(CCN(C)C3=O)C1)C(=O)N1CCC[C@H](N1)C(=O)OCC(C)(C)C2 (single isomer, unassigned) [Example A495] | 10 to 100 | 100 to 1000 | 1000 to 10000 | 100 to 1000 | 100 to 1000 | 100 to 1000 | 1000 to 10000 | 100 to 1000 | 100 to 1000 | 100 to 1000 | 100 to 1000 | 100 to 1000 | 100 to 1000 | 100 to 1000
CCn1c(-c2cccnc2[C@H](C)OC)c2c3cc(ccc31)-c1csc(n1)C[C@H](NC(=O)C1CCC1)C(=O)N1CCC[C@H](N1)C(=O)OCC(C)(C)C2 [Example A369] | 100 to 1000 | 100 to 1000 | 1000 to 10000 | 100 to 1000 | 100 to 1000 | 100 to 1000 | 100 to 1000 | 100 to 1000 | 100 to 1000 | 100 to 1000 | 100 to 1000 | 100 to 1000 | 100 to 1000 | 100 to 1000

Continued, in another order:

IC50 [2] [nM] | IC50 [3] [nM] | IC50 [4] [nM] | IC50 [5] [nM] | IC50 [6] [nM] | IC50 [7] [nM] | IC50 [8] [nM] | IC50 [9] [nM] | IC50 [10] [nM] | IC50 [11] [nM] | IC50 [12] [nM] | IC50 [13] [nM] | IC50 [14] [nM] | SMILES | IC50 [1] [nM]
< 10 | 10 to 100 | 100 to 1000 | 10 to 100 | 100 to 1000 | 100 to 1000 | 100 to 1000 | 10 to 100 | 10 to 100 | 10 to 100 | 10 to 100 | 10 to 100 | 10 to 100 | CCn1c(-c2cccnc2[C@H](C)OC)c2c3cc(ccc31)-c1csc(n1)C[C@H](NC(=O)[C@H](C(C)C)N(C)C(=O)N1CCN(C(=O)C3COC3)CC1)C(=O)N1CCC[C@H](N1)C(=O)OCC(C)(C)C2 (atropisomer, axis not shown) [Example A606] | 10 to 100
< 10 | 10 to 100 | 100 to 1000 | 100 to 1000 | 100 to 1000 | 100 to 1000 | 100 to 1000 | 10 to 100 | 10 to 100 | 10 to 100 | 10 to 100 | 100 to 1000 | 10 to 100 | CCn1c(-c2cccnc2[C@H](C)OC)c2c3cc(ccc31)-c1csc(n1)C[C@H](NC(=O)[C@H](C(C)C)N(C)C(=O)N1CCN(C(=O)C3(N(C)C)CC3)CC1)C(=O)N1CCC[C@H](N1)C(=O)OCC(C)(C)C2 (atropisomer, axis not shown) [Example A443] | 10 to 100
< 10 | 10 to 100 | 100 to 1000 | 10 to 100 | 10 to 100 | 10 to 100 | 100 to 1000 | 10 to 100 | 10 to 100 | 10 to 100 | 10 to 100 | 10 to 100 | 10 to 100 | CCn1c(-c2cc(N3CCN(C)CC3)cnc2[C@H](C)OC)c2c3cc(ccc31)-c1csc(n1)C[C@H](NC(=O)[C@H](C(C)C)N(C)C(=O)N1CCOCC1)C(=O)N1CCC[C@H](N1)C(=O)OCC(C)(C)C2 (atropisomer, axis not shown) [Example A555] | < 10
